In PubChem BioAssay (NCI):
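Test compounds were applied to cells in 96-well plates for 48 hours at 5 doses. The concentration for full growth arrest is given as TGI.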

Legend:
Assay in all cases: NCI anticancer screen, dose series, 48 h
[1] = tested on: SNB-75 CNS
[2] = tested on: NCI-H23 lung
[3] = tested on: SK-MEL-28 melanoma
[4] = tested on: SN12C renal
[5] = tested on: SW-620 colon
[6] = tested on: COLO 205 colon
[7] = tested on: 786-0 renal
[8] = tested on: MOLT-4 leukemia
[9] = tested on: U251 CNS
[10] = tested on: HOP-62 NSCLC
[11] = tested on: IGROV1 ovarian
[12] = tested on: SK-MEL-2 melanoma
[13] = tested on: SF-268 CNS
[14] = tested on: OVCAR-4 ovarian
[15] = tested on: XF 498 CNS
[16] = tested on: TK-10 renal
[17] = tested on: ACHN renal
[18] = tested on: HOP-18 NSCLC
[19] = tested on: SK-OV-3 ovarian
[20] = tested on: M19-MEL melanoma
[21] = tested on: A549 NSCLC
[22] = tested on: CAKI-1 renal
[23] = tested on: SF-295 CNS
[24] = tested on: OVCAR-5 ovarian
[25] = tested on: SF-539 CNS
[26] = tested on: MALME-3M melanoma
[27] = tested on: SNB-19 CNS
[28] = tested on: DLD-1 colon
[29] = tested on: UACC-257 melanoma
[30] = tested on: CCRF-CEM leukemia
[31] = tested on: KM20L2 colon
[32] = tested on: HCC-2998 colon
[33] = tested on: NCI-H460 lung
[34] = tested on: UACC-62 melanoma
[35] = tested on: LOX IMVI melanoma
[36] = tested on: HCT-15 colon
[37] = tested on: HT29 colon
[38] = tested on: DMS 273 small cell lung
[39] = tested on: LXFL 529 NSCLC
[40] = tested on: K-562 leukemia
[41] = tested on: OVCAR-8 ovarian
[42] = tested on: KM12 colon
[43] = tested on: OVCAR-3 ovarian
[44] = tested on: RXF 393 renal
[45] = tested on: SNB-78 CNS
[46] = tested on: EKVX NSCLC
[47] = tested on: A498 renal
[48] = tested on: M14 melanoma
[49] = tested on: DMS 114 small cell lung
[50] = tested on: UO-31 renal
[51] = tested on: SK-MEL-5 melanoma
[52] = tested on: RPMI-8226 leukemia
[53] = tested on: DU-145 prostate
[54] = tested on: MDA-MB-435
[55] = tested on: BT-549 breast
[56] = tested on: SR leukemia
[57] = tested on: T-47D breast
[58] = tested on: NCI-H226 lung
[59] = tested on: NCI/ADR-RES ovarian
[60] = tested on: MDA-MB-231 breast
[61] = tested on: HS 578T breast
[62] = tested on: PC-3 prostate
[63] = tested on: MCF7 breast
[64] = tested on: NCI-H522 lung
[65] = tested on: MDA-N
[66] = tested on: HCT-116 colon
[67] = tested on: HL-60(TB) leukemia
[68] = tested on: HOP-92 NSCLC

CC[P+](C)(C)c1ccccc1
TGI [1]: > 100 µM
TGI [2]: > 100 µM
TGI [3]: > 100 µM
TGI [4]: > 100 µM
TGI [5]: > 100 µM
TGI [6]: > 100 µM
TGI [7]: > 100 µM
TGI [8]: > 100 µM
TGI [9]: > 100 µM
TGI [10]: > 100 µM
TGI [11]: > 100 µM
TGI [12]: > 100 µM
TGI [13]: > 100 µM
TGI [14]: > 100 µM
TGI [15]: > 100 µM
TGI [16]: > 100 µM
TGI [17]: > 100 µM
TGI [18]: 49.8 µM
TGI [19]: > 100 µM
TGI [20]: > 100 µM
TGI [21]: > 100 µM
TGI [22]: > 100 µM
TGI [23]: > 100 µM
TGI [24]: > 100 µM
TGI [25]: > 100 µM
TGI [26]: > 100 µM
TGI [27]: > 100 µM
TGI [28]: > 100 µM
TGI [29]: > 100 µM
TGI [30]: > 100 µM
TGI [31]: > 100 µM
TGI [32]: > 100 µM
TGI [33]: > 100 µM
TGI [34]: > 100 µM
TGI [35]: > 100 µM
TGI [36]: > 100 µM
TGI [37]: > 100 µM
TGI [38]: > 100 µM
TGI [39]: > 100 µM
TGI [40]: > 100 µM
TGI [41]: > 100 µM
TGI [42]: > 100 µM
TGI [43]: > 100 µM
TGI [44]: > 100 µM
TGI [45]: > 100 µM
TGI [46]: > 100 µM
TGI [47]: > 100 µM
TGI [48]: > 100 µM
TGI [49]: > 100 µM
TGI [50]: > 100 µM
TGI [51]: > 100 µM
TGI [52]: > 100 µM

Cc1ccc(N=Nc2ccc(O)c(CN(C)C)c2)cc1
TGI [1]: 75.1 µM
TGI [2]: > 100 µM
TGI [3]: 41.1 µM
TGI [4]: > 100 µM
TGI [5]: 70.1 µM
TGI [6]: 35.2 µM
TGI [7]: 54.7 µM
TGI [8]: 53.4 µM
TGI [9]: > 100 µM
TGI [10]: 26.3 µM
TGI [53]: 47.3 µM
TGI [54]: 32.3 µM
TGI [11]: 35 µM
TGI [55]: 79.9 µM
TGI [12]: 37.7 µM
TGI [13]: 91.7 µM
TGI [14]: 53.5 µM
TGI [16]: 44.5 µM
TGI [17]: 41.8 µM
TGI [19]: 85.3 µM
TGI [21]: 49.4 µM
TGI [22]: 61.3 µM
TGI [56]: > 100 µM
TGI [23]: 33.7 µM
TGI [24]: 29.7 µM
TGI [57]: 39.5 µM
TGI [25]: 33.3 µM
TGI [58]: 49.4 µM
TGI [26]: 31.2 µM
TGI [27]: > 100 µM
TGI [59]: 53.7 µM
TGI [29]: 32.3 µM
TGI [30]: 63 µM
TGI [32]: 29.5 µM
TGI [60]: 56.3 µM
TGI [33]: 33.8 µM
TGI [34]: 44.3 µM
TGI [35]: 28.6 µM
TGI [36]: 50.2 µM
TGI [37]: 32.3 µM
TGI [61]: 41.9 µM
TGI [62]: 54.7 µM
TGI [63]: 73.9 µM
TGI [64]: 32.6 µM
TGI [65]: 30.6 µM
TGI [40]: 39.6 µM
TGI [41]: 42.3 µM
TGI [42]: 37.9 µM
TGI [43]: 31.8 µM
TGI [44]: 34.2 µM
TGI [46]: 51.9 µM
TGI [66]: 51.8 µM
TGI [67]: 41.3 µM
TGI [47]: 40.2 µM
TGI [48]: 41.6 µM
TGI [68]: 67.7 µM
TGI [50]: 54.1 µM
TGI [51]: 28 µM
TGI [52]: 48 µM
